Columns and labels:
[1] = molecular target: T1, Cannabinoid receptor 1 (Homo sapiens, UniProt P21554); format: functional, cell-based
[2] = molecular target: Histamine H3 receptor (Homo sapiens, UniProt Q9Y5N1)
[3] = molecular target: T2, Alpha-1A adrenergic receptor (Homo sapiens, UniProt P35348)
T2 sequence (P35348 whole entry): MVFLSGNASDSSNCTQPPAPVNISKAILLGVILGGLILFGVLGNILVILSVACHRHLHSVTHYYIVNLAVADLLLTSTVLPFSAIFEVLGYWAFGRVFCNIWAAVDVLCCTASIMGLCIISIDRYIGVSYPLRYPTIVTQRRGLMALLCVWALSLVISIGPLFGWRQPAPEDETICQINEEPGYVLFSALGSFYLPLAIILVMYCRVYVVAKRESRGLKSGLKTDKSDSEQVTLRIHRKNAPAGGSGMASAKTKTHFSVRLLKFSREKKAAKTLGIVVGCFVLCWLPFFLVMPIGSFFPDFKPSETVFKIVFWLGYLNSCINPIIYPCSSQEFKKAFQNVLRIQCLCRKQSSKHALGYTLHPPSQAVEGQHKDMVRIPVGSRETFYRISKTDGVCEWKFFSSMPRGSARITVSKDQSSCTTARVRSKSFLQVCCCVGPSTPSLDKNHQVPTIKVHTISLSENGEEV

[4] = molecular target: T3, 5-hydroxytryptamine receptor 2B (Homo sapiens, UniProt P41595)
T3 sequence (P41595 whole entry): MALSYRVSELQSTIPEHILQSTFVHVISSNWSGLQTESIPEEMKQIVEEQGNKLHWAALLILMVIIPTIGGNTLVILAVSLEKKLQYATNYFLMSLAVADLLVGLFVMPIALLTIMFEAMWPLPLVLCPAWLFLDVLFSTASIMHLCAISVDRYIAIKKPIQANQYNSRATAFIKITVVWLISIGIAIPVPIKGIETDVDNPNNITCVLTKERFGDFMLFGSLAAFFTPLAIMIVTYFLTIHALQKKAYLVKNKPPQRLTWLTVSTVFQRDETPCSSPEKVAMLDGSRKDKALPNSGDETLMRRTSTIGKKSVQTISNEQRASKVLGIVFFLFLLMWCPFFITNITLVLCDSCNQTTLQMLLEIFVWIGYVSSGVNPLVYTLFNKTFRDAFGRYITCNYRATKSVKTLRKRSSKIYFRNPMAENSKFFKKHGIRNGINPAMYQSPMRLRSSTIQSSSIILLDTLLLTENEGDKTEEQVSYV

[5] = molecular target: T4, 5-hydroxytryptamine receptor 2C (Homo sapiens, UniProt P28335)
T4 sequence (P28335 whole entry): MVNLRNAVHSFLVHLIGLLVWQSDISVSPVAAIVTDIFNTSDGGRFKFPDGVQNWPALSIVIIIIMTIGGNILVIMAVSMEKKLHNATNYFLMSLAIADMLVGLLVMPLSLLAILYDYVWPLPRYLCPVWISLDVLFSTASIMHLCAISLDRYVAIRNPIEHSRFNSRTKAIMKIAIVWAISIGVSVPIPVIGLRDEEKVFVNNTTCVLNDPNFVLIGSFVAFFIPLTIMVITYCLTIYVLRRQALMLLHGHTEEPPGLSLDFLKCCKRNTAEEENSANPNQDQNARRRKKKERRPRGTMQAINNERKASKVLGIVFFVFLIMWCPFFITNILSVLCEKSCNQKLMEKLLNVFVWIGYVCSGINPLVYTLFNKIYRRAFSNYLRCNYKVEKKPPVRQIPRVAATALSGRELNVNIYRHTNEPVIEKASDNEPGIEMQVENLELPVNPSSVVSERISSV

[6] = molecular target: T5, Gamma-aminobutyric acid receptor subunit alpha-1 (Rattus norvegicus, UniProt P62813)
T5 sequence (P62813 whole entry): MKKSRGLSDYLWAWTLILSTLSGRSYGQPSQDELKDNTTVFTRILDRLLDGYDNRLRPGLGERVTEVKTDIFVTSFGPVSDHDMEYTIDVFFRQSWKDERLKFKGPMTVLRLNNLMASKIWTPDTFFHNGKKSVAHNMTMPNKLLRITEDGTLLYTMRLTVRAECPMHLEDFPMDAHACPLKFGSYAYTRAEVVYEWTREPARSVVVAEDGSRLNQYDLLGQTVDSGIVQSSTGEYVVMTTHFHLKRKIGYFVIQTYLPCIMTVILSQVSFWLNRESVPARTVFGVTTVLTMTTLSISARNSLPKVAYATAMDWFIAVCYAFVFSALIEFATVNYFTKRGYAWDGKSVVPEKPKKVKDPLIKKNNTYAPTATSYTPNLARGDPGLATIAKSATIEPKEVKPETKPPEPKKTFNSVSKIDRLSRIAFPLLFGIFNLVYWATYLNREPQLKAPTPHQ

[7] = molecular target: T3, 5-hydroxytryptamine receptor 2B; format: functional, cell-based
[8] = molecular target: T2, Alpha-1A adrenergic receptor; format: functional, cell-based
[9] = molecular target: T6, Mu-type opioid receptor (Homo sapiens, UniProt P35372)
T6 sequence (P35372 whole entry): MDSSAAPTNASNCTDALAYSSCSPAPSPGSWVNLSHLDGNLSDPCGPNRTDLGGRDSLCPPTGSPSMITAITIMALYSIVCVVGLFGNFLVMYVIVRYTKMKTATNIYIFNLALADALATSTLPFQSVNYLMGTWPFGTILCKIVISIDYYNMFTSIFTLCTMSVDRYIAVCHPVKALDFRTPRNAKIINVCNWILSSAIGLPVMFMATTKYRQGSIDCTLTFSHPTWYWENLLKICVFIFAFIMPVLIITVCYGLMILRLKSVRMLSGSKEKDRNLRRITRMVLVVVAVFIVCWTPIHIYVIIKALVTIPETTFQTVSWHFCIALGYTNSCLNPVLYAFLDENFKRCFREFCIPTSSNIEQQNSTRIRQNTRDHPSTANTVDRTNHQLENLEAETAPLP

[10] = molecular target: T6, Mu-type opioid receptor; assay: biochemical; format: functional
[11] = molecular target: T7, Beta-2 adrenergic receptor (Homo sapiens, UniProt P07550)
T7 sequence (P07550 whole entry): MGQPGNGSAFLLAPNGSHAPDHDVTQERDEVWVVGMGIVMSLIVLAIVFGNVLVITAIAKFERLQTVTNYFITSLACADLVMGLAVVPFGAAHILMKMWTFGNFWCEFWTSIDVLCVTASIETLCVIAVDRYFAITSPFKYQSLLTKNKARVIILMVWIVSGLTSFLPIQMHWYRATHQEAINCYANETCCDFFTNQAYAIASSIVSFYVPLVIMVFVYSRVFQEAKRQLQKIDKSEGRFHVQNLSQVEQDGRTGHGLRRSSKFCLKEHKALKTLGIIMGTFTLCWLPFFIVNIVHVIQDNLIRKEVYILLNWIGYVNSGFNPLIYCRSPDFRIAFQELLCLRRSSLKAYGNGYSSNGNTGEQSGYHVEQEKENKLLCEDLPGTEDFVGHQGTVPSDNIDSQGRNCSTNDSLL

[12] = molecular target: T8, 5-hydroxytryptamine receptor 1A (Homo sapiens, UniProt P08908); format: functional, cell-based
T8 sequence (P08908 whole entry): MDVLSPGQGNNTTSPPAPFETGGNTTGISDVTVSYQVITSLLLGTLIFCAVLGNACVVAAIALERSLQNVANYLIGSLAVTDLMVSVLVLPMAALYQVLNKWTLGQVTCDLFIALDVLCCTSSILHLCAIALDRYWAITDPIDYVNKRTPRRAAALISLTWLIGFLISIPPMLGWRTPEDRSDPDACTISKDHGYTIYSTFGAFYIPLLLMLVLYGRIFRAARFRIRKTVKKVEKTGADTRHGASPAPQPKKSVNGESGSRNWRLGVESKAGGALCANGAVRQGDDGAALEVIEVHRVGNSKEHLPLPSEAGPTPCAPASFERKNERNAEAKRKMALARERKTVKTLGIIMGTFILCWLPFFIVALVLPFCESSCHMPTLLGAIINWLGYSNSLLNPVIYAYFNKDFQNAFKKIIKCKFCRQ

[13] = molecular target: Gamma-aminobutyric acid receptor subunit alpha-1/alpha-2/beta-2/gamma-2 (Homo sapiens, UniProt P14867+P18507+P47869+P47870); format: functional, cell-based
[14] = molecular target: T2, Alpha-1A adrenergic receptor; format: functional, cell-based; remark: listed apart in the source
[15] = molecular target: D(3) dopamine receptor (Homo sapiens, UniProt P35462)
D(3) dopamine receptor, sequence (P35462 whole entry): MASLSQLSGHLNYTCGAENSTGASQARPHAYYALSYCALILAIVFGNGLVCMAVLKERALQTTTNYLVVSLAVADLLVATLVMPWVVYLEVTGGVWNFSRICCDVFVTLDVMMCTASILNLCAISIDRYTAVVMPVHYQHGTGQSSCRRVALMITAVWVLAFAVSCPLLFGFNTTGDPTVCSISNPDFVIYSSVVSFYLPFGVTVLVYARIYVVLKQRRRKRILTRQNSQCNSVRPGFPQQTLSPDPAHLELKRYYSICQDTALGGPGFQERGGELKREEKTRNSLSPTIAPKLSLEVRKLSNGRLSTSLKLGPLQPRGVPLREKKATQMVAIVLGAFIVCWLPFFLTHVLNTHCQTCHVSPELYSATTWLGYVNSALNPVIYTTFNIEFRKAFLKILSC

[16] = molecular target: T8, 5-hydroxytryptamine receptor 1A; format: functional, cell-based; remark: listed apart in the source
[17] = molecular target: Delta-type opioid receptor (Homo sapiens, UniProt P41143)
Delta-type opioid receptor, sequence (P41143 whole entry): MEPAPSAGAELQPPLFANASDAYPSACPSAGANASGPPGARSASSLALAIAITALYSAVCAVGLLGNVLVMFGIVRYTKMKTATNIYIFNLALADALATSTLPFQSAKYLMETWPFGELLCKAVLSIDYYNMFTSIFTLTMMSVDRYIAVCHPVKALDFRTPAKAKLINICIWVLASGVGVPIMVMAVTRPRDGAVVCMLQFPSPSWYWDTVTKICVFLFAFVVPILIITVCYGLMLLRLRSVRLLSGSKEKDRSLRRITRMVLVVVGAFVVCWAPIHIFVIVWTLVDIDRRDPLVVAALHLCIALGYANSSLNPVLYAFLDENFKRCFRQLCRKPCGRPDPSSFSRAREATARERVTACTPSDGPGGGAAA

[18] = molecular target: T7, Beta-2 adrenergic receptor; format: functional, cell-based
[19] = molecular target: T1, Cannabinoid receptor 1
[20] = molecular target: T9, D(1A) dopamine receptor (Homo sapiens, UniProt P21728); format: functional, cell-based
T9 sequence (P21728 whole entry): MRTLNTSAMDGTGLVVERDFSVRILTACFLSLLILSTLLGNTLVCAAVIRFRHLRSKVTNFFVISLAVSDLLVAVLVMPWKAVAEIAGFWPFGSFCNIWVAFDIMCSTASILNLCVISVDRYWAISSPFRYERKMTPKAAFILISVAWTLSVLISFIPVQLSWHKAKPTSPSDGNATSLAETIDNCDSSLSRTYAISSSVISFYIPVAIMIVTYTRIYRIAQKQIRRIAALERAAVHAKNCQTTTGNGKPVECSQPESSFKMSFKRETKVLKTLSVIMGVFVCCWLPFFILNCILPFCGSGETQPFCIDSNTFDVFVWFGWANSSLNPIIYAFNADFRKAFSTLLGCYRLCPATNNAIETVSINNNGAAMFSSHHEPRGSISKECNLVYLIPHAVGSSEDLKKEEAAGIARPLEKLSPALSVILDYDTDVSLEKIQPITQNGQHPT

[21] = molecular target: Neuronal acetylcholine receptor subunit alpha-4 (Homo sapiens, UniProt P43681)
[22] = molecular target: Glutamate receptor ionotropic, NMDA 1 (Rattus norvegicus, UniProt P35439)
[23] = molecular target: Histamine H2 receptor (Homo sapiens, UniProt P25021); format: functional, cell-based
Histamine H2 receptor, sequence (P25021 whole entry): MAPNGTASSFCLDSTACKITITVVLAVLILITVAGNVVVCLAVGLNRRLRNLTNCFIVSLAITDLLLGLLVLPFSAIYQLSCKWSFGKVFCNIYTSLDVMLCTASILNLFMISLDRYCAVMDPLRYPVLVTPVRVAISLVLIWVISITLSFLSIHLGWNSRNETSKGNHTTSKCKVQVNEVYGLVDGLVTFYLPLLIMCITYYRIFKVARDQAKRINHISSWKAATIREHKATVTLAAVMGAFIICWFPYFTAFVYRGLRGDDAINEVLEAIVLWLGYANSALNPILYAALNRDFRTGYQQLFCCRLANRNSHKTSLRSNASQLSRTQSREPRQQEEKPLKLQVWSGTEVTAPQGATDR

[24] = molecular target: T10, Amine oxidase [flavin-containing] A (Homo sapiens, UniProt P21397); format: functional
T10 sequence (P21397 whole entry): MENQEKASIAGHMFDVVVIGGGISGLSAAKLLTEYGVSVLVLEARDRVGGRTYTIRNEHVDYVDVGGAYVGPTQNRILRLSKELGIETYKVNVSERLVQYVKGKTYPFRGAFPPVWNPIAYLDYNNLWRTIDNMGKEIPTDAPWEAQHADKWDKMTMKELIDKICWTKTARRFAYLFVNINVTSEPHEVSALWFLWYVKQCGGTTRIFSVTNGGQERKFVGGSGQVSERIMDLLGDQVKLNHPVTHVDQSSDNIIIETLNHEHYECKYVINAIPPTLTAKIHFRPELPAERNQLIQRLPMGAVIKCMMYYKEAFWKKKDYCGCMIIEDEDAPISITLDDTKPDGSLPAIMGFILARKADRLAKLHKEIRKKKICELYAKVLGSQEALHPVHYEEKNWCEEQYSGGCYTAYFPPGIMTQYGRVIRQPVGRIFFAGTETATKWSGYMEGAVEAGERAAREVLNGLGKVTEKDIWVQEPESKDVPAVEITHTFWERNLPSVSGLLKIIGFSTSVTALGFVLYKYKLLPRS

[25] = molecular target: Voltage-dependent L-type calcium channel subunit alpha-1C (Rattus norvegicus, UniProt P22002); format: functional
[26] = molecular target: T5, Gamma-aminobutyric acid receptor subunit alpha-1; format: functional
[27] = molecular target: T9, D(1A) dopamine receptor; format: functional, cell-based; remark: listed apart in the source
[28] = molecular target: T3, 5-hydroxytryptamine receptor 2B; format: functional, cell-based; remark: listed apart in the source
[29] = molecular target: Kappa-type opioid receptor (Homo sapiens, UniProt P41145)
Kappa-type opioid receptor, sequence (P41145 whole entry): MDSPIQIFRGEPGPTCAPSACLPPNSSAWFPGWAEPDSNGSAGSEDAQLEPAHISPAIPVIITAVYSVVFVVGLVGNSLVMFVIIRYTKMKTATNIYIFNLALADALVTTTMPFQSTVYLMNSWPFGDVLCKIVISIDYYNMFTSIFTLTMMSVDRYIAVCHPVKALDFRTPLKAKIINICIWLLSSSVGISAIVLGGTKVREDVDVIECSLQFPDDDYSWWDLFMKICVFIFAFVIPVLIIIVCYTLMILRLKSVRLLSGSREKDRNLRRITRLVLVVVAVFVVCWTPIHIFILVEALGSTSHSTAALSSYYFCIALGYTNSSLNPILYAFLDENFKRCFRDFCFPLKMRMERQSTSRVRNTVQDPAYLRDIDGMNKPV
Also: assay procedure not described here.

T1 sequence (P21554 whole entry): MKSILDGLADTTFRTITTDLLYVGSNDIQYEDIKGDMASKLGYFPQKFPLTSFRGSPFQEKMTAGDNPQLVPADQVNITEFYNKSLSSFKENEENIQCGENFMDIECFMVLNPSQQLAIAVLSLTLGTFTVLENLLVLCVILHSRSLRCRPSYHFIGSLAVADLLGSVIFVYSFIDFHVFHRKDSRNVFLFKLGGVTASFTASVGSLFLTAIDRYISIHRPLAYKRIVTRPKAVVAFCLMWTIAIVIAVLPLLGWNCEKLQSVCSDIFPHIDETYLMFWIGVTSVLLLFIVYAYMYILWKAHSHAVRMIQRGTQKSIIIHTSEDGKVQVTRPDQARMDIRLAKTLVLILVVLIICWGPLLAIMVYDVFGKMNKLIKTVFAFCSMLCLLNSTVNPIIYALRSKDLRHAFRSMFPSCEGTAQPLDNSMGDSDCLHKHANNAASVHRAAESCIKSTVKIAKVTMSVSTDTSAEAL
Histamine H3 receptor, sequence (Q9Y5N1 whole entry): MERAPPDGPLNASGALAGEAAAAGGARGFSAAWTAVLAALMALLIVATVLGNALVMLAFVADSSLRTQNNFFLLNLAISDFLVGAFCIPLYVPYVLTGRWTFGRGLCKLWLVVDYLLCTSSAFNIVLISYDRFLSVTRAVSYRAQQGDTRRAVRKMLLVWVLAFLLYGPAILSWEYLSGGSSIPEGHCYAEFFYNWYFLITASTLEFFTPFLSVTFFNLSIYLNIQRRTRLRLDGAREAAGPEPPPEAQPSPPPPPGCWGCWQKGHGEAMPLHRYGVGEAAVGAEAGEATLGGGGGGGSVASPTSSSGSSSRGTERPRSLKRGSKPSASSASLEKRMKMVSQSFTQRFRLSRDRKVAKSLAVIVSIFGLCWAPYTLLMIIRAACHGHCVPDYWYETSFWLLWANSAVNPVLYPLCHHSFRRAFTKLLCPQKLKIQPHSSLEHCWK

Structure (SMILES): CN1[C@@H]2CC[C@H]1C[C@@H](OC(c1ccccc1)c1ccccc1)C2 [BENZTROPINE]
- AC50 [1]: > 30 µM
- AC50 [2]: > 30 µM
- AC50 [3]: 0.078 µM
- AC50 [4]: 0.137 µM
- AC50 [5]: 12.4 µM
- AC50 [6]: > 10 µM
- AC50 [7]: > 30 µM
- AC50 [8]: 0.96 µM
- AC50 [9]: 6.26 µM
- AC50 [10]: 5.3 µM
- AC50 [11]: > 30 µM
- AC50 [12]: > 30 µM
- AC50 [13]: > 30 µM
- AC50 [14]: > 30 µM
- AC50 [15]: 2.83 µM
- AC50 [16]: > 30 µM
- AC50 [17]: 11 µM
- AC50 [18]: > 30 µM
- AC50 [19]: > 10 µM
- AC50 [20]: 21 µM
- AC50 [21]: > 30 µM
- AC50 [22]: > 10 µM
- AC50 [23]: > 30 µM
- AC50 [24]: > 30 µM
- AC50 [25]: > 10 µM
- AC50 [26]: > 30 µM
- AC50 [27]: > 30 µM
- AC50 [28]: 2.6 µM
- AC50 [29]: 0.993 µM
